Laboratory results as given in patent US6117859A, “Method of relieving chronic inflammation by using 5-alkylsulfonylsalicylanilides” (The Research Foundation of State University of New York, priority 1999, dated 2000).

Key:
[1] = Solubility of representative compounds in various solvent systems; assay type: physicochemical
Experimental: The solubility of representative compounds of this invention in various solvent systems was determined. The solvents included ethanol, propylene glycol, SLS, Tween 80™ and combinations thereof.

[2] = test system: ear weight gain produced by multiple doses of TPA in mice; assay: Chronic (multiple dose) TPA mouse ear inflammation assay, ear weight gain; assay type: in vivo, mouse (female CD-1); conditions: multiple doses of TPA
Experimental: The acute skin inflammation model described in Example 1, tests the ability of a compound to prevent inflammation and thus must be applied prophylactically. Most clinical situations, however, are present as chronic inflammatory conditions. […] The effects of the compounds of the present invention and Salifluor on chronically inflamed skin was measured in the mouse ear model that utilizes multiple TPA doses over a 10-day period to produce the inflammatory response.
The assay used female CD-1 mice (7-9 weeks of age). Following a 2-week quarantine, mice were randomly assigned to test groups (5 mice/groups). TPA (10 uL of 0.01 TPA in acetone) was administered to both the inner and outer surface of each ear (2μg/ear) on day 0,2,4,7, and 9 on protocol. On Day 7,8 and 9, two applications of test article were applied to each ear 2 and 4 hours after dosing with TPA. The test articles were administered in 10 uL aliquots to both the inner and outer surface of each ear (20 μl total/dose). […] Hydrocortisone-17-valerate (HCV, 20μg/ear) was employed as a positive control. Mice were sacrificed at Day 10 on protocol and uniform punch biopsies (approximately 8 mm dia.) were taken from each ear. While on protocol, dermal irritation was scored semiquantitatively at Day 1,3,5,8, and 10.
Inhibition of TPA stimulated increased ear weight was used as an initial measure of efficacy for all of the agents tested. One biopsy from each mouse was also quick frozen and stored at -70° C. for later assay of myleoperoxidase, an enzyme associated with infiltrating PMN, or other measure of efficacy. The remaining biopsy from each mouse treated with Trifluorosal or HCV was fixed in formalin and processed for histopathologic evaluation, including measurement of cellular infiltration (PMNs, endothelial cells, macrophages) and epidermal thickness at 20 random sites along the length of the specimen.
Initially, a dose-response curve for multiple doses of TPA to produce mouse ear weight gain was generated in order to determine the concentration of TPA to be employed in the inhibition studies. […] Another major difference between the multiple TPA dose (or chronic assay for inflammation) and the single TPA dose (or acute assay for inflammation) in the mouse ear is sensitivity to Non-steroidal antiinflammatory drugs (NSAIDs) and antihistamines.

[3] = prior art compound; cited from earlier work
[4] = prior art compound; cited from earlier work; remark: listed apart in the source
[5] = in vivo; cited from earlier work

Compound CCCCCCCC(=O)c1ccc(O)c(C(=O)Nc2cccc(C(F)(F)F)c2)c1 [Salifluor, reference compound] has a solubility ([1]; +1% sls) of 0.23 mg/mL, a solubility ([1]; +2% sls) of 0.29 mg/mL and a solubility ([1]; +4% sls) of 0.38 mg/mL. It also gave a solubility ([1]; aqueous buffer, pH 10 K-buffer @ 35° C.) of 0.00114 mg/mL, a solubility ([1]; aqueous buffer, pH 10 Na-buffer @ 22° C.) of 0.00391 mg/mL and a solubility ([1]; organic solvent or mixture, Ethanol @ 19° C.) of 13 mg/mL. The solubility ([1]; organic solvent or mixture, Propylene Glycol @ 20° C.) was 0.55 mg/mL, the “% Inhibition of Ear Weight Gain, Actual” value [2] was 0% and the “% Inhibition of Ear Weight Gain, Relative to Hydrocortisone (HCV) = 100%” value ([2]; head prints 1.25 eg/ear) was 0%. For the same compound, the “Solubility in aqueous solutions at neutral pH” value [3] was “relatively insoluble in aqueous solutions at neutral pH”, the pKa [4] was 6.1 and the “Anti-inflammatory activity in clinical trials” value [5] was “have been reported to have anti-inflammatory activity in clinical trials”.
